34 compounds from patent publication US8044069B2, “Compounds as calcium channel blockers” (Abbott Laboratories, priority 2008, dated 2011) can be followed below.

The assay addresses human Cav2.2 (Homo sapiens, UniProt Q00975). Kind of assay: Assessment of calcium channel activity using FLIPR (Ca2+ influx in IMR32 cells). It counts as cell-based. The conditions noted are these: IMR32 cells endogenously expressing human Cav2.2; 60 minute pre-incubation; 2 μM nifedipine; depolarized with 80 mM KCl, 5 mM CaCl2. The gist of the method:
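IMR32 cells were dye-loaded and pre-incubated 60 min with compound (10 μM to 0.1 nM) in 1.3 mM CaCl2 plus 2 μM nifedipine to block L-type channels. Cells were then depolarized with 80 mM KCl while Ca2+ was raised to 5 mM, and FLIPR read the influx. IC50 came from a sigmoidal fit of % inhibition versus the no-inhibitor control.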

Structures are written as SMILES.

Sequence of human Cav2.2 (Q00975 whole entry): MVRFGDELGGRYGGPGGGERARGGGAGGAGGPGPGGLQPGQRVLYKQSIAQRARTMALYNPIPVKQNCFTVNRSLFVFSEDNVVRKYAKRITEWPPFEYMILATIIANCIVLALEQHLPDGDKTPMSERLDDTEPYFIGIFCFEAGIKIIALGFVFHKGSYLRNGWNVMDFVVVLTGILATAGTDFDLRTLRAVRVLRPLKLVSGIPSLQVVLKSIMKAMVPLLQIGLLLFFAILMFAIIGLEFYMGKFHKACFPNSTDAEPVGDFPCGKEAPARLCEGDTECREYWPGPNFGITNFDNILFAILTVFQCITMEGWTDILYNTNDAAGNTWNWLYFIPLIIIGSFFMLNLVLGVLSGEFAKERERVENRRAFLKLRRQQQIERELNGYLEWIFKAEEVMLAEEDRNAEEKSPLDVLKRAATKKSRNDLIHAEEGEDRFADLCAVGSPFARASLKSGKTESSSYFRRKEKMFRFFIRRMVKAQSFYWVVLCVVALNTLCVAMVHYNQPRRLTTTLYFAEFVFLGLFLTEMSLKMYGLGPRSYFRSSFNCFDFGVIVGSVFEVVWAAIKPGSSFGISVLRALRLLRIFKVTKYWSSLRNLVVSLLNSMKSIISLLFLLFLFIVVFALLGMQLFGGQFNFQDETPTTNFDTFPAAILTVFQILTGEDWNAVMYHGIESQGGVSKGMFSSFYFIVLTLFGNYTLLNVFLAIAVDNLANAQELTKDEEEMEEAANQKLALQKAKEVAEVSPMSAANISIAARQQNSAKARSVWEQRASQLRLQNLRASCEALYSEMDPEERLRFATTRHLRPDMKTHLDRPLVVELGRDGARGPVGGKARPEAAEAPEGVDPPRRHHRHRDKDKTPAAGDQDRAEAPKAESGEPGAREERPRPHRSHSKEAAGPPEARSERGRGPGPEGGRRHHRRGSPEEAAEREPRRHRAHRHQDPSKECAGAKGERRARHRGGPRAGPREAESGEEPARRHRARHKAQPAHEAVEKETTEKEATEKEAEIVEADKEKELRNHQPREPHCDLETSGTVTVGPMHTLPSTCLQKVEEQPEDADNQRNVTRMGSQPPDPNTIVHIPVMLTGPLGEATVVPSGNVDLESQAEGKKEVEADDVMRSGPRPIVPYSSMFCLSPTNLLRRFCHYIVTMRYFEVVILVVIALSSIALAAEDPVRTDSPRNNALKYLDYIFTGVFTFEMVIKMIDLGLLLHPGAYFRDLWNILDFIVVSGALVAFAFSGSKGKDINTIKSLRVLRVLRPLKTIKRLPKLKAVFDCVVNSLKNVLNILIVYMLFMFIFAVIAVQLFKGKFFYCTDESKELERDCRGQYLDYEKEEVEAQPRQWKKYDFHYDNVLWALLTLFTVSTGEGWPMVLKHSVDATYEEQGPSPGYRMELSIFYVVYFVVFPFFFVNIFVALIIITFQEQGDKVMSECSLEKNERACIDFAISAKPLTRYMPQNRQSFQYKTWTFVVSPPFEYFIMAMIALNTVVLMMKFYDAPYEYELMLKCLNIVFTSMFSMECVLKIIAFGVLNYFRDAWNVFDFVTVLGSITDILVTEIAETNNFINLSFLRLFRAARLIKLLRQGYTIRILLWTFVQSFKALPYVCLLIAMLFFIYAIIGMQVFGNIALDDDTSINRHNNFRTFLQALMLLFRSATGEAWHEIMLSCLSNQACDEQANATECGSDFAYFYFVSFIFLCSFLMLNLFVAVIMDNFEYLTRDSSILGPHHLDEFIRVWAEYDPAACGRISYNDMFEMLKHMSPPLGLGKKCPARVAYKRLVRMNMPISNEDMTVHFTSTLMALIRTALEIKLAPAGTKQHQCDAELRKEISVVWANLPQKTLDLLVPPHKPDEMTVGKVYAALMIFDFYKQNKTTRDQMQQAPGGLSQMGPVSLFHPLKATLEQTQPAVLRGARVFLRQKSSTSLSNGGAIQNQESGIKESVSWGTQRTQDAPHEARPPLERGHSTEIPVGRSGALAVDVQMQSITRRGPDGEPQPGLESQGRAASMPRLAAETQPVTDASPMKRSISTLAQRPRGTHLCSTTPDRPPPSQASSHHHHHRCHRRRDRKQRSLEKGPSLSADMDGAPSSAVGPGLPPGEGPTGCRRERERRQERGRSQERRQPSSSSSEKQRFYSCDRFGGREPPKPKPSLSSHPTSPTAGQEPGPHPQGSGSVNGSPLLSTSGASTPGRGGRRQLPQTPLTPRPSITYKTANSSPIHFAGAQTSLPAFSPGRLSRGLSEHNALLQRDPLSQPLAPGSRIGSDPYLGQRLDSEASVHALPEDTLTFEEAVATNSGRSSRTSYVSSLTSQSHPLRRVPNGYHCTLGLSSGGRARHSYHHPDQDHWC
Sequence of human Cav2.2 (P54289 25-951 partner limits assumed): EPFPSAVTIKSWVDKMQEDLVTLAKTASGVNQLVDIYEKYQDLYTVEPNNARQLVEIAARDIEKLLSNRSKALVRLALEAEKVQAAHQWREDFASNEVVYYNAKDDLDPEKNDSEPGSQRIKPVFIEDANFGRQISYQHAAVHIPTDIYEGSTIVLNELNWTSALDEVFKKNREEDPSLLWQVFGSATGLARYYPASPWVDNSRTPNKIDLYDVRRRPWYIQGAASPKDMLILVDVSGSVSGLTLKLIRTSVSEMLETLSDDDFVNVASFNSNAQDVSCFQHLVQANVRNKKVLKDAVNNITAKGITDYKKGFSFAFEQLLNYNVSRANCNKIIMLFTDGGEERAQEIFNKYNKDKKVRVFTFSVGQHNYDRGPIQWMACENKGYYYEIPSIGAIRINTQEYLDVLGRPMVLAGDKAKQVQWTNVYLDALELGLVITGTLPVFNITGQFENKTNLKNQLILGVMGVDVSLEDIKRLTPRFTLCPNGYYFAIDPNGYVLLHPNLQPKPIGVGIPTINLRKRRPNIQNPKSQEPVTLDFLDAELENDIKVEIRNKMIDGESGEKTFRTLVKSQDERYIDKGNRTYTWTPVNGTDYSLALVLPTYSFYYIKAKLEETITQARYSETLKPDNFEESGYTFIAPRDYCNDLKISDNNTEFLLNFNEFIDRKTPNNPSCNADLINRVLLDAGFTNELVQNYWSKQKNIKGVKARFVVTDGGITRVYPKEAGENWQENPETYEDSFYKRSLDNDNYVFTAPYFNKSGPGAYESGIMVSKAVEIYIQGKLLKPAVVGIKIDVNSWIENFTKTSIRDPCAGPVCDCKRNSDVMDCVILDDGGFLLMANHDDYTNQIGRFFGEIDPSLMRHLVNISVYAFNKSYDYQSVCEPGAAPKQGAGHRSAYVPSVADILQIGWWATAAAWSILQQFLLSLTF
Sequence of human Cav2.2 (P54289 952-1103 partner limits assumed): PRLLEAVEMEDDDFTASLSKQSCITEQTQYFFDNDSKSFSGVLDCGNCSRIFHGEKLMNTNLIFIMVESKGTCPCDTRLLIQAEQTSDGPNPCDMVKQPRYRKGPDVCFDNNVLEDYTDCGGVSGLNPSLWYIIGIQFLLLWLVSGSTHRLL
Sequence of human Cav2.2 (P54284 whole entry partner): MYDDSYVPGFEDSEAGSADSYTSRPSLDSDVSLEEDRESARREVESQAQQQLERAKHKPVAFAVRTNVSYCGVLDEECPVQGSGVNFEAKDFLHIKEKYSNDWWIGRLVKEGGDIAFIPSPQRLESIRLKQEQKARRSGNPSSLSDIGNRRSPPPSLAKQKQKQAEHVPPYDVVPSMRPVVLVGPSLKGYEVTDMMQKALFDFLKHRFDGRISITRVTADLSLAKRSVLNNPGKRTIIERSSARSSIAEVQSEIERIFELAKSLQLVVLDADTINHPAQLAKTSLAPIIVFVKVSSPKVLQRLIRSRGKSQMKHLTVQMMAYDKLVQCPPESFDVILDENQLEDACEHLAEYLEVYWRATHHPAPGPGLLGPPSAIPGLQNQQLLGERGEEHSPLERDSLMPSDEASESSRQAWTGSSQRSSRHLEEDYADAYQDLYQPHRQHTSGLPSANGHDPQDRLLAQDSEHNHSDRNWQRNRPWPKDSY

The term IC50 denotes the midpoint of a concentration-inhibition curve. Regarding `O=C(CN1CCC(c2ccccc2)(c2ccccc2)C1=O)N1CCC[C@@H]2CN(C(c3ccccc3)c3ccccc3)C[C@@H]21` [Example 51, 1-{2-[(4aR,7aR)-6-benzhydryloctahydro-1H-pyrrolo[3,4-b]pyridin-1-yl]-2-oxoethyl}-3,3-diphenylpyrrolidin-2-one], the 50% inhibitory concentration (IC50) was determined as 2290 nM.
In the case of `O=C(CN1CCCC(c2ccccc2)(c2ccccc2)C1=O)N1CC(c2ccc(C(F)(F)F)cc2)C1` [Example 240, 1-(2-oxo-2-{3-[4-(trifluoromethyl)phenyl]azetidin-1-yl}ethyl)-3,3-diphenylpiperidin-2-one] it was 3070 nM.
For `CC(C)N1CCN(CC(=O)N2CCN(C(c3ccc(F)cc3)c3ccc(F)cc3)CC2)C(=O)C1c1ccccc1` (stereo not shown) [Example 273, 1-(2-(4-(bis(4-fluorophenyl)methyl)piperazin-1-yl)-2-oxoethyl)-4-isopropyl-3-phenylpiperazin-2-one] the value was 2480 nM.
On to `COc1ccccc1N1CCN(CCN2CCCC(c3ccc(F)cc3)(c3ccc(F)cc3)C2=O)CC1` [Example 137, 3,3-bis(4-fluorophenyl)-1-{2-[4-(2-methoxyphenyl)piperazin-1-yl]ethyl}piperidin-2-one], for which the IC50 is 1100 nM.
In the case of `O=C(CN1CCCC(c2ccccc2)(c2ccccc2)C1=O)N1CCCCC1c1ccc(F)cc1` (stereo not shown) [Example 74, 1-{2-[2-(4-fluorophenyl)piperidin-1-yl]-2-oxoethyl}-3,3-diphenylpiperidin-2-one] it was 2680 nM; in that of `O=C(CN1CCC(c2ccccc2)(c2ccccc2)C1=O)N1CCC(C(O)(c2cccc(C(F)(F)F)c2)c2cccc(C(F)(F)F)c2)CC1` [Example 33, 1-{2-[4-(hydroxy{bis[3-(trifluoromethyl)phenyl]}methyl)piperidin-1-yl]-2-oxoethyl}-3,3-diphenylpyrrolidin-2-one], 7550 nM; in that of `O=C(CN1CCC(c2ccccc2)(c2ccccc2)C1=O)N1CCC(C(O)(c2ccc(F)cc2)c2ccc(F)cc2)CC1` [Example 32, 1-(2-{4-[bis(4-fluorophenyl)(hydroxy)methyl]piperidin-1-yl}-2-oxoethyl)-3,3-diphenylpyrrolidin-2-one], 710 nM.
For `O=C(CN1CCC(c2ccccc2)(c2ccccc2)C1=O)N1CCC(NCC(c2ccccc2)c2ccccc2)CC1` [Example 52, 1-(2-{4-[(2,2-diphenylethyl)amino]piperidin-1-yl}-2-oxoethyl)-3,3-diphenylpyrrolidin-2-one] the value was 1540 nM; for `O=C(CN1CCCC(c2ccccc2)(c2ccccc2)C1=O)NC1CCN(Cc2ccc(F)c(C(F)(F)F)c2)CC1` [Example 183, N-{1-[4-fluoro-3-(trifluoromethyl)benzyl]piperidin-4-yl}-2-(2-oxo-3,3-diphenylpiperidin-1-yl)acetamide], 960 nM; for `O=C(CN1CCC(c2ccccc2)(c2ccccc2)C1=O)N1CCC(c2ccc(F)cc2)(c2ccc(F)cc2)C1` [Example 203, 1-{2-[3,3-bis(4-fluorophenyl)pyrrolidin-1-yl]-2-oxoethyl}-3,3-diphenylpyrrolidin-2-one], 2160 nM.
Turning to `O=C(CN1CCC(c2ccccc2)(c2ccccc2)C1=O)N1CCC(C(c2ccccc2)c2ccccc2)CC1` [Example 30, 1-[2-(4-benzhydrylpiperidin-1-yl)-2-oxoethyl]-3,3-diphenylpyrrolidin-2-one], the concentration for half-maximal inhibition (IC50) is 650 nM.
In the case of `CC(C)(C)c1ccc(-c2noc(CN3CCC(c4ccccc4)(c4ccccc4)C3=O)n2)cc1` [Example 202, 1-{[3-(4-tert-butylphenyl)-1,2,4-oxadiazol-5-yl]methyl}-3,3-diphenylpyrrolidin-2-one] it was 10400 nM; in that of `O=C(CN1CCCC(c2ccccc2)(c2ccccc2)C1=O)N1CCN(C(c2ccccc2)c2ccccc2)C(=O)C1` [Example 83, 1-benzhydryl-4-[(2-oxo-3,3-diphenylpiperidin-1-yl)acetyl]piperazin-2-one], 1230 nM; in that of `O=C1N(CCCc2nc(-c3ccc(C(F)(F)F)cc3)no2)CCC1(c1ccccc1)c1ccccc1` [Example 155, 3,3-diphenyl-1-(3-{3-[4-(trifluoromethyl)phenyl]-1,2,4-oxadiazol-5-yl}propyl)pyrrolidin-2-one], 4370 nM.
With `O=C(NC1CC1)c1cccc(S(=O)(=O)N2CCC(c3ccccc3)(c3ccccc3)C2=O)c1` [Example 150, N-cyclopropyl-3-[(2-oxo-3,3-diphenylpyrrolidin-1-yl)sulfonyl]benzamide], the IC50 came out at 860 nM.
With `CC1(NC(=O)CN2CCCC(c3ccccc3)(c3ccccc3)C2=O)CCN(Cc2ccccc2)C1` (stereo not shown) [Example 89, N-(1-benzyl-3-methylpyrrolidin-3-yl)-2-(2-oxo-3,3-diphenylpiperidin-1-yl)acetamide], the IC50 was found to be 3000 nM.
Take `O=C1N(CCN2CCN(c3cccc(C(F)(F)F)c3)CC2)CCCC1(c1ccc(F)cc1)c1ccc(F)cc1` [Example 139, 3,3-bis(4-fluorophenyl)-1-(2-{4-[3-(trifluoromethyl)phenyl]piperazin-1-yl}ethyl)piperidin-2-one]: the half-maximal inhibitory concentration (IC50) worked out at 4770 nM.
For `O=C(CN1CCCC(c2ccccc2)C1=O)N1CCN(Cc2ccc(Cl)cc2Cl)CC1` (stereo not shown) [Example 94, 1-{2-[4-(2,4-dichlorobenzyl)piperazin-1-yl]-2-oxoethyl}-3-phenylpiperidin-2-one], the 50% inhibitory concentration (IC50) was 2200 nM.
As to `N#Cc1ccc(NC(=O)CN2CCC(c3ccccc3)(c3ccccc3)C2=O)nc1` [Example 251, N-(5-cyanopyridin-2-yl)-2-(2-oxo-3,3-diphenylpyrrolidin-1-yl)acetamide], the IC50 was 8320 nM.
For `O=C(CN1CCC(c2ccc(F)cc2)(c2ccc(F)cc2)C1=O)N1CC2(CCN(Cc3ccc(C(F)(F)F)cc3)CC2)C1` [Example 153, 3,3-bis(4-fluorophenyl)-1-(2-oxo-2-{7-[4-(trifluoromethyl)benzyl]-2,7-diazaspiro[3.5]non-2-yl}ethyl)pyrrolidin-2-one] the value was 860 nM; for `COc1ccc(OC2CCN(C(=O)CN3CCCC(c4ccccc4)(c4ccccc4)C3=O)CC2)cc1` [Example 161, 1-{2-[4-(4-methoxyphenoxy)piperidin-1-yl]-2-oxoethyl}-3,3-diphenylpiperidin-2-one], 5740 nM; for `O=C(CN1CCC(c2ccccc2)(c2ccccc2)C1=O)N1CCc2ccc(C(F)(F)F)cc2C1` [Example 55, 1-{2-oxo-2-[7-(trifluoromethyl)-3,4-dihydroisoquinolin-2(1H)-yl]ethyl}-3,3-diphenylpyrrolidin-2-one], 2130 nM.
Take `O=C(CN1CCC(c2ccccc2)(c2ccccc2)C1=O)N1CCN(C(c2ccccc2)c2ccc(Cl)cc2)CC1` (stereo not shown) [Example 47, 1-(2-{4-[(4-chlorophenyl)(phenyl)methyl]piperazin-1-yl}-2-oxoethyl)-3,3-diphenylpyrrolidin-2-one]: the 50% inhibitory concentration (IC50) was 1010 nM.
For `O=C(CN1CCCC(c2ccccc2)(c2ccccc2)C1=O)N1CCc2ccc(C(F)(F)F)cc2C1` [Example 261, 1-{2-oxo-2-[7-(trifluoromethyl)-3,4-dihydroisoquinolin-2(1H)-yl]ethyl}-3,3-diphenylpiperidin-2-one] the value was 4440 nM; for `O=C1N(Cc2nc(-c3ccc(O)cc3)no2)CCCC1(c1ccccc1)c1ccccc1` [Example 206, 1-{[3-(4-hydroxyphenyl)-1,2,4-oxadiazol-5-yl]methyl}-3,3-diphenylpiperidin-2-one], 4890 nM; for `O=C(CN1CCC(c2ccccc2)(c2ccccc2)C1=O)N1Cc2ccc(C(F)(F)F)cc2C1` [Example 20, 1-{2-oxo-2-[5-(trifluoromethyl)-1,3-dihydro-2H-isoindol-2-yl]ethyl}-3,3-diphenylpyrrolidin-2-one], 2820 nM.
In the case of `O=C(CN1CCCC(c2ccccc2)(c2ccccc2)C1=O)N1CCN(C(c2ccc(F)cc2)c2ccc(F)cc2)CC1` [Example 82, 1-(2-{4-[bis(4-fluorophenyl)methyl]piperazin-1-yl}-2-oxoethyl)-3,3-diphenylpiperidin-2-one] it was 2360 nM.
With `O=C(CN1CCC(c2ccc(F)cc2)C1=O)N1Cc2ccc(F)cc2C1` (stereo not shown) [Example 227, 1-[2-(5-fluoro-1,3-dihydro-2H-isoindol-2-yl)-2-oxoethyl]-3-(4-fluorophenyl)pyrrolidin-2-one], the IC50 is 12100 nM.
In the case of `O=C(CN1CCC(c2ccc(F)cc2)(c2ccc(F)cc2)C1=O)N1Cc2ccc(C(F)(F)F)cc2C1` [Example 228, 3,3-bis(4-fluorophenyl)-1-{2-oxo-2-[5-(trifluoromethyl)-1,3-dihydro-2H-isoindol-2-yl]ethyl}pyrrolidin-2-one] it was 1530 nM.
In the case of `O=C(CN1CCC(c2ccc(F)cc2)(c2ccc(F)cc2)C1=O)N1CCC(c2ccc(F)cc2)(c2ccc(F)cc2)C1` [Example 204, 1-{2-[3,3-bis(4-fluorophenyl)pyrrolidin-1-yl]-2-oxoethyl}-3,3-bis(4-fluorophenyl)pyrrolidin-2-one] it was 3040 nM.
For `O=C1N(Cc2nc(-c3ccncc3)no2)CCC1(c1ccccc1)c1ccccc1` [Example 222, 3,3-diphenyl-1-[(3-pyridin-4-yl-1,2,4-oxadiazol-5-yl)methyl]pyrrolidin-2-one] the value was 5430 nM; for `O=C(CN1CCC(c2ccc(F)cc2)(c2ccc(F)cc2)C1=O)NC1CCN(Cc2cccc(C(F)(F)F)c2)CC1` [Example 208, 2-[3,3-bis(4-fluorophenyl)-2-oxopyrrolidin-1-yl]-N-{1-[3-(trifluoromethyl)benzyl]piperidin-4-yl}acetamide], 2400 nM.
As to `O=C1N(Cc2nc(-c3cc(F)cc(F)c3)no2)CCC1(c1ccccc1)c1ccccc1` [Example 215, 1-{[3-(3,5-difluorophenyl)-1,2,4-oxadiazol-5-yl]methyl}-3,3-diphenylpyrrolidin-2-one], the 50% inhibitory concentration (IC50) was 6890 nM.
For `O=C(CN1CCC(c2ccccc2)(c2ccccc2)C1=O)N1CCN(c2ccc(Cl)cn2)CC1` [Example 53, 1-{2-[4-(5-chloropyridin-2-yl)piperazin-1-yl]-2-oxoethyl}-3,3-diphenylpyrrolidin-2-one] the value was 4020 nM.
